Results on 13 compounds are retold here after patent US11111245B2, “Derivatives of N-cycloalkyl/heterocycloalkyl-4-(imidazo[1,2-a]pyridine)pyrimidin-2-amine as therapeutic agents” (Aucentra Therapeutics Pty Ltd, priority 2017, dated 2021).

Assay type in all cases: biochemical
The target of one test is CDK4/D1 (Homo sapiens, UniProt P11802). The test can be described thus: ADP Glo Kinase assay CDK4/D1. The conditions noted are these: CDK4D1; for remaining activity at 10 µM: compound at 10 μM, read-out: residual activity (%) at 10 μM CDK4D1; for Ki: read-out: CDK inhibition, Ki (μM) CDK4D1. The procedure, abridged: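 In-house ADP-Glo assay: CDK4/D1 or CDK6/D3 with RB-CTF substrate in […] Tris pH 7.5, 20 mM MgCl2, 0.4 mM DTT, 0.1 mg/ml BSA; ATP-started, 40 min at 37° C.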
Sequence of CDK4/D1 (P11802 whole entry): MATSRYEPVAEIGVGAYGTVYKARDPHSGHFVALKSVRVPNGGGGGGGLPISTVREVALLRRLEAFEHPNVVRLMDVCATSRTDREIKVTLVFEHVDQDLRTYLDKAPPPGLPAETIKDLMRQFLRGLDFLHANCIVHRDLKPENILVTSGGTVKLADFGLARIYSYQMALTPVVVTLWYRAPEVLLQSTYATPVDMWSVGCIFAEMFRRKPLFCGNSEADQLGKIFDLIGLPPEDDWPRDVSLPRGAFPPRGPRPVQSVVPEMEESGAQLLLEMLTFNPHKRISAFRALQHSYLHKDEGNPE
Sequence of CDK4/D1 (P24385 whole entry partner): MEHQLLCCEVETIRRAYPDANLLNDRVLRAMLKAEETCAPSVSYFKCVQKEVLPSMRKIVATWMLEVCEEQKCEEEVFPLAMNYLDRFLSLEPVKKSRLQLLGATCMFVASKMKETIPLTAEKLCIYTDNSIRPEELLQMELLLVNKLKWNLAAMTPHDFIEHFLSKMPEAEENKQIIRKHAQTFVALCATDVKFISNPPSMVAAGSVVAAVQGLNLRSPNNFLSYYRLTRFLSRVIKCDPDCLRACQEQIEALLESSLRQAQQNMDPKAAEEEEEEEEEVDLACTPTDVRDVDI

For another test, the target named is CDK6/D3 (Homo sapiens, UniProt Q00534). The test can be described thus: ADP Glo Kinase assay CDK6/D3. As to conditions: CDK6D3; for remaining activity at 10 µM: compound at 10 μM, read-out: residual activity (%) at 10 μM CDK6D3; for Ki: read-out: CDK inhibition, Ki (μM) CDK6D3. How it is done: Eurofins Pharma Discovery or Reaction Biology Corporation Kinase Profiler services were used to measure inhibition of CDKs and other kinases by radiometric assay. Inhibition of CDK4/D1, CDK6/D3 and CDK9/T1 were also determined in-house using ADP Glo Kinase assays (Promega Corporation, Madison, USA). Briefly, the kinase reaction for CDK4/D1 and CDK6/D3 was performed with kinase reaction buffer ([…] Tris base pH 7.5, 20 mM MgCl2, 0.4 mM DTT), 0.1 mg/ml BSA and RB-CTF substrate (retinoblastoma protein 1 C-terminal fraction). For CDK9/CyclinT1, the kinase reaction was performed with standard assay buffer and Kinase Dilution Buffer and RBER-IRStide substrate. Serial dilutions of 1:3 were prepared for test compounds for 10 concentrations (from 10 μM to 0.5 nM). The kinase reactions were started by addition of ATP, incubated for 40 min at 37° C. and then stopped by adding 10 μL of ADP Glo reagent. After incubation at room temperature in the dark for 40 min, 20 μL of kinase detection reagent was added per well and incubated for 40 min. Luminescence was measured using an EnVision Multilabel plate reader (PerkinElmer, Buckinghamshire, UK). Positive and negative controls were performed in the presence and absence of CDK kinases, respectively. Half-maximal inhibition (IC50) values were calculated using a 4-parameter logistic non-linear regression model with Graphpad prism (Version 6.0). Apparent inhibition constants (Ki) values were calculated from Km (ATP) and IC50 values for the respective kinases.
Sequence of CDK6/D3 (Q00534 whole entry): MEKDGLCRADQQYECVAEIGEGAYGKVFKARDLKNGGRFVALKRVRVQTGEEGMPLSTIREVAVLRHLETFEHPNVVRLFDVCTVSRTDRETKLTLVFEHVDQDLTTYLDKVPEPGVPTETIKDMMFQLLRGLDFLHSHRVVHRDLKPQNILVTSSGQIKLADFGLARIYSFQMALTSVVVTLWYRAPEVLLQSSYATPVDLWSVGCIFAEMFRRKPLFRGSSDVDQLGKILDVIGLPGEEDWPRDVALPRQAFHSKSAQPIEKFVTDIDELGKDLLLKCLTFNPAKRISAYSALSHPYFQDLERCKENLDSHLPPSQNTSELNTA
Sequence of CDK6/D3 (P30281 whole entry partner): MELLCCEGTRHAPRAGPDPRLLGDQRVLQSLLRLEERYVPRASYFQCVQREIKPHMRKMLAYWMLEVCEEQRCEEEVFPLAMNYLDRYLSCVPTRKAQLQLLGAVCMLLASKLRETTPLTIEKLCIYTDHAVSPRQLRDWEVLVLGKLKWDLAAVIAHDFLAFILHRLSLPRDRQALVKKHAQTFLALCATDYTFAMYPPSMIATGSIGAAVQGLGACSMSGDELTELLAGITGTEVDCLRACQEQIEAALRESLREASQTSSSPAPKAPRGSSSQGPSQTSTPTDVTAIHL
On the technique in general: ADP-Glo turns the ADP formed in a reaction into a luminescent signal.

Test [1] concerns the target T1, CDKs and other kinases (Homo sapiens, UniProt P24941).
T1 construct: other: CDK2A; residual activity (%) at 10 μM CDK2A; compound at 10 μM
The test can be described thus: Radiometric kinase assay (Eurofins Pharma Discovery or Reaction Biology Corporation Kinase Profiler). The conditions noted are these: CDK2A; for remaining activity at 10 µM: compound at 10 μM, read-out: residual activity (%) at 10 μM CDK2A; for Ki: read-out: CDK inhibition, Ki (μM) CDK2A. The essentials:
(§1)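 Other CDKs and further kinases were profiled externally by radiometric assay. In-house ADP Glo assays covered CDK4/D1 and CDK6/D3 (RB-CTF substrate, pH 7.5 Tris buffer with MgCl2, DTT, BSA) and CDK9/T1 (RBER-IRStide substrate), 40 min at 37° C.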

The target of test [2] is T2, CDKs and other kinases (Homo sapiens, UniProt P50613).
T2 construct: other: CDK7H; residual activity (%) at 10 μM CDK7H; compound at 10 μM
T2 sequence (P50613 whole entry): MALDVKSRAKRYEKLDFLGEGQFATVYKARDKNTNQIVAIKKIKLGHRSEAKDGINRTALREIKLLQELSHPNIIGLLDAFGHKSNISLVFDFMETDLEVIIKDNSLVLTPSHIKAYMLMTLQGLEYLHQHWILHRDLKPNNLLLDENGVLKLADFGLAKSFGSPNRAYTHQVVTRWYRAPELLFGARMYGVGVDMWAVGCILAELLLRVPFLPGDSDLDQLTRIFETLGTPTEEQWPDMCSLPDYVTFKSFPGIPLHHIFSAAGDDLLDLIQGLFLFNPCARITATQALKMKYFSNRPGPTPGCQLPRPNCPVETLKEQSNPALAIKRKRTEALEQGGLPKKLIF
Described as above. As to conditions: for remaining activity at 10 µM: compound at 10 μM, read-out: residual activity (%) at 10 μM CDK7H. The procedure, abridged:
as §1

For test [3], the target named is T3, CDKs and other kinases (Homo sapiens, UniProt P06493).
T3 construct: other: CDK1B; residual activity (%) at 10 μM CDK1B; compound at 10 μM
T3 sequence (P06493 whole entry): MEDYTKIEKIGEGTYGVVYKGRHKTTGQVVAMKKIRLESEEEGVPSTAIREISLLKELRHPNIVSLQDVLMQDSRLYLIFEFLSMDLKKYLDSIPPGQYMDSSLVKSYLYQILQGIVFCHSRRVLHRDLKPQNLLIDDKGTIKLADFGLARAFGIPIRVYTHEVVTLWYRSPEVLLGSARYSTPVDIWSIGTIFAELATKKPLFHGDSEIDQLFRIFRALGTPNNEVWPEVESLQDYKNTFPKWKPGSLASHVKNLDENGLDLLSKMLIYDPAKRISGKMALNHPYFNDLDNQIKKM
The description is as above. As to conditions: CDK1B; for remaining activity at 10 µM: compound at 10 μM, read-out: residual activity (%) at 10 μM CDK1B; for Ki: read-out: CDK inhibition, Ki (μM) CDK1B. The essentials:
as §1

For the next test, the target named is CDK9/T1 (Homo sapiens, UniProt P50750). The test can be described thus: ADP Glo Kinase assay CDK9/T1. The procedure, abridged:
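CDK4/D1 and CDK6/D3 were run in […] Tris pH 7.5, 20 mM MgCl2, 0.4 mM DTT, 0.1 mg/ml BSA with RB-CTF substrate; CDK9/T1 used RBER-IRStide. ATP-started reactions ran 40 min at 37° C, with ADP Glo luminescence read-out. IC50 came from 4-parameter fits; Ki from Km (ATP) and IC50.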

[4] abbreviates: CDK9T1, read-out: CDK inhibition, Ki (μM) CDK9T1.
Setting [5] is: CDK7H, read-out: CDK inhibition, Ki (μM) CDK7H.

Read-outs that look alike come from different tables or passages of the source. A value given as a limit tells only on which side of the number the result lay.

Sequence of CDK9/T1 (P50750 whole entry): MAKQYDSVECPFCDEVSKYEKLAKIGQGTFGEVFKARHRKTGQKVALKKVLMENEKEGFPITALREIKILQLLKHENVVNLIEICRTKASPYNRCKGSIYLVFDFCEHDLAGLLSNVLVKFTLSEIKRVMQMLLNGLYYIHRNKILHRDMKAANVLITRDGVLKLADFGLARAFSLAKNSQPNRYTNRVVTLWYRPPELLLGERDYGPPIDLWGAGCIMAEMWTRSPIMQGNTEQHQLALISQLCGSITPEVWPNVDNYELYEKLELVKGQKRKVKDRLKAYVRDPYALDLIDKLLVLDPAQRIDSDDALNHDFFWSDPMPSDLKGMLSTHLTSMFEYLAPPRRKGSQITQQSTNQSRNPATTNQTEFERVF
Sequence of CDK9/T1 (O60563 whole entry partner): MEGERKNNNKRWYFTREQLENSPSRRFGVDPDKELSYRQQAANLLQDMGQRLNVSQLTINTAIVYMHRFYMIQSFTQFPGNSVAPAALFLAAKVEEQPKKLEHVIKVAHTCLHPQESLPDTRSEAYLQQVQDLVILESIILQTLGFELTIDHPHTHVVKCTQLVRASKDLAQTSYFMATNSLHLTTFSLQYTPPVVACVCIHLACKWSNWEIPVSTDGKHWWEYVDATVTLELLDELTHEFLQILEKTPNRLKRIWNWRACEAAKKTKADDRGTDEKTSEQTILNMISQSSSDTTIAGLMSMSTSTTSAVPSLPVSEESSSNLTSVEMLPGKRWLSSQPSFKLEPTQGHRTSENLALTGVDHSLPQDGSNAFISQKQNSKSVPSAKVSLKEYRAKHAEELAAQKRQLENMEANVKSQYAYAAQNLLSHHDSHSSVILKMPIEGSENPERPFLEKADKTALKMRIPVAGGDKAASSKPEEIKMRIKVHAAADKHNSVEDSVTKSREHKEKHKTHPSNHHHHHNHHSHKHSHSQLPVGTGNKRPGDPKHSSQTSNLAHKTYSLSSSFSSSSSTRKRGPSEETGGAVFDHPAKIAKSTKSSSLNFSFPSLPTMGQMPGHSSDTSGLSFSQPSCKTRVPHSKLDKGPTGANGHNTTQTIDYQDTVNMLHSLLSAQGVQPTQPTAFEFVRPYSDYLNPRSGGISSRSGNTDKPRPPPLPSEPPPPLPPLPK

Take `N[C@H]1CC[C@H](Nc2ncc(Cl)c(-c3cnc4cc(-c5cccnc5)ccn34)n2)CC1` [Compound 78, (1r,4r)-N^1-(5-Chloro-4-(7-(pyridin-3-yl)imidazo[1,2-a]pyridin-3-yl)pyrimidin-2-yl)cyclohexane-1,4-diamine]: the remaining activity at 10 µM turned out to be 10% on CDK4/D1; 3% at CDK6/D3; 0% on CDKs and other kinases [1]; 3% at CDKs and other kinases [2] (CDK7H); 7% at CDKs and other kinases [3]. In addition, the inhibition constant (Ki) (usually a measure of affinity in units of concentration, obtained from inhibition or displacement) on CDK9/T1 (setting [4]) was determined as 0.019 µM.
As for `N[C@H]1CC[C@H](Nc2ncc(F)c(-c3cnc4ccc(Nc5cncnc5)cn34)n2)CC1` [Compound 50, (1r,4r)-N^1-(5-Fluoro-4-(6-(pyrimidin-5-ylamino)imidazo [1,2-a]pyridin-3-yl)pyrimidin-2-yl)cyclohexane-1,4-diamine], the remaining activity at 10 µM at CDK4/D1 was 14%; at CDK6/D3, 4%; at CDKs and other kinases [1], 0%; at CDKs and other kinases [2] (CDK7H) it was 4%; at CDKs and other kinases [3] it was 1%. The Ki at CDK9/T1 (setting [4]) came to 0.003 µM.
As to `Cc1cnc(N[C@H]2CN3CCC2CC3)nc1-c1cnc2ccc(Nc3cncnc3)cn12` [Compound 76, (R)-N-(5-Methyl-4-(6-(pyrimidin-5-ylamino)imidazo [1,2-a]pyridin-3-yl)pyrimidin-2-yl)quinuclidin-3-amine], the remaining activity at 10 µM at CDK4/D1 amounted to 91%; on CDK6/D3, 89%; at CDKs and other kinases [1] it was 59%; on CDKs and other kinases [2] (CDK7H), 92%; on CDKs and other kinases [3], 72%. Also, the Ki at CDK9/T1 (setting [4]) was determined as 0.485 µM.
As for `N[C@H]1CC[C@H](Nc2ncc(Cl)c(-c3cnc4cc(Nc5cncnc5)ccn34)n2)CC1` [Compound 118, (1r,4r)-N^1-(5-Chloro-4-(7-(pyrimidin-5-ylamino)imidazo [1,2-a]pyridin-3-yl)pyrimidin-2-yl)cyclohexane-1,4-diamine], the results for the remaining activity at 10 µM on CDK4/D1 and at CDK6/D3 were 0% and 6%, respectively. Besides, the inhibition constant (Ki) was 0.026 µM at CDKs and other kinases [1]; 0.018 µM at CDKs and other kinases [2] (setting [5]); 0.154 µM on CDKs and other kinases [3]; 0.036 µM at CDK9/T1 (setting [4]).
On to `C[C@]12C[C@]3(C)C[C@](O)(C1)C[C@](Nc1ncc(F)c(-c4cnc5ccc(Nc6cncnc6)cn45)n1)(C2)C3` [Compound 111, (1s,3r,5R,7S)-3-((5-Fluoro-4-(6-(pyrimidin-5-ylamino)imidazo[1,2-a]pyridin-3-yl)pyrimidin-2-yl)amino)-5,7-dimethyladamantan-1-ol], for which the remaining activity at 10 µM at CDK4/D1 worked out at 29%; on CDK6/D3 it was 89%; on CDKs and other kinases [1], 11%; on CDKs and other kinases [2] (CDK7H), 86%; at CDKs and other kinases [3], 20%. Also, at CDK9/T1 (setting [4]), the inhibitory constant (Ki) was 0.108 µM.
Take `Cc1cnc(N[C@H]2CC[C@H](N)CC2)nc1-c1cnc2cc(Nc3cncnc3)ccn12` [Compound 56, (1r,4r)-N^1-(5-Methyl-4-(7-(pyrimidin-5-ylamino)imidazo [1,2-a]pyridin-3-yl)pyrimidin-2-yl)cyclohexane-1,4-diamine]: the remaining activity at 10 µM at CDK4/D1 worked out at 0%; at CDK6/D3, 5%; on CDKs and other kinases [1], 12%; at CDKs and other kinases [2] (CDK7H), 22%; at CDKs and other kinases [3], 39%. For the same compound, the Ki on CDK9/T1 (setting [4]) stood at 0.051 µM.
Consider `N[C@H]1CC[C@H](Nc2ncc(F)c(-c3cnc4ccc(Nc5cccnc5)cn34)n2)CC1` [Compound 49, (1r,4r)-N^1-(5-Fluoro-4-(6-(pyridin-3-ylamino)imidazo [1,2-a]pyridin-3-yl)pyrimidin-2-yl)cyclohexane-1,4-diamine], for which the remaining activity at 10 µM was determined as 0% at CDK4/D1; 5% at CDK6/D3; 0% at CDKs and other kinases [1]; 3% on CDKs and other kinases [2] (CDK7H); 1% on CDKs and other kinases [3]. Moreover, on CDK9/T1 (setting [4]), the Ki amounted to 0.003 µM.
Take `CNC1CCC(Nc2ncc(C)c(-c3cnc4ccc(Nc5cncnc5)cn34)n2)CC1` (stereo not drawn) [Compound 109, N^1-Methyl-N^4-(5-Methyl-4-(6-(pyrimidin-5-ylamino)imidazo[1,2-a]pyridin-3-yl)pyrimidin-2-yl)cyclohexane-1,4-diamine]: the Ki was 0.94 µM on CDK4/D1; 0.21 µM at CDK6/D3; 0.18 µM at CDKs and other kinases [1]; > 10 µM on CDKs and other kinases [2] (setting [5]); 1.26 µM at CDKs and other kinases [3]; 0.008 µM at CDK9/T1 (setting [4]).
`Cc1cnc(N[C@H]2CC[C@H](NC(C)C)CC2)nc1-c1cnc2ccc(Nc3cncnc3)cn12` [Compound 121, (1r,4r)-N^1-Isopropyl-N^4-(5-methyl-4-(6-(pyrimidin-5-ylamino)imidazo[1,2-a]pyridin-3-yl)pyrimidin-2-yl) cyclohexane-1,4-diamine]: the Ki at CDK4/D1 is 2.21 µM; at CDKs and other kinases [1], 0.86 µM; at CDKs and other kinases [2] (setting [5]) it was 3.86 µM; on CDKs and other kinases [3], 0.78 µM; at CDK9/T1 (setting [4]), 0.032 µM. At CDK6/D3, the remaining activity at 10 µM was found to be 47%.
`Cc1cnc(N[C@H]2CC[C@H](N3CC3)CC2)nc1-c1cnc2cc(Nc3cncnc3)ccn12` [Compound 119, 3-(2-(((1r,4r)-4-(Aziridin-1-yl)cyclohexyl)amino)-5-methylpyrimidin-4-yl)-N-(pyrimidin-5-yl)imidazo[1,2-a] pyridin-7-amine]: the Ki at CDK4/D1 was found to be 0.64 µM; at CDK6/D3, 0.54 µM; at CDKs and other kinases [1], 0.14 µM; at CDKs and other kinases [2] it was 0.12 µM; on CDKs and other kinases [3], 0.623 µM; on CDK9/T1 it was 0.004 µM.
Regarding `N[C@H]1CC[C@H](Nc2ncc(Cl)c(-c3cnc4cc(-c5ccccc5)ccn34)n2)CC1` [Compound 77, (1r,4r)-N^1-(5-Chloro-4-(7-phenylimidazo[1,2-a]pyridin-3-yl)pyrimidin-2-yl)cyclohexane-1,4-diamine], the remaining activity at 10 µM at CDK4/D1 came out at 5%; at CDK6/D3, 6%; on CDKs and other kinases [1], 0%; at CDKs and other kinases [2] (CDK7H), 3%; on CDKs and other kinases [3], 5%. Further, the Ki at CDK9/T1 (setting [4]) stood at 0.011 µM.
For the compound `Cc1cnc(N2CCC3(CCNC3=O)CC2)nc1-c1cnc2ccc(-c3ccccc3)cn12` [Compound 125, 8-(5-Methyl-4-(6-phenylimidazo[1,2-a]pyridin-3-yl)pyrimidin-2-yl)-2,8-diazaspiro[4.5]decan-1-one], the remaining activity at 10 µM at CDK4/D1 is 100%; at CDK6/D3 it was 92%. Further, the inhibitory constant (Ki) on CDKs and other kinases [1] is 3.94 µM; on CDKs and other kinases [2] (setting [5]) it was 4.56 µM; at CDKs and other kinases [3] it was > 5 µM; on CDK9/T1 (setting [4]), 2.88 µM.
Regarding `Cc1cnc(N[C@H]2CC[C@H](N)CC2)nc1-c1cnc2ccc(Nc3cncc(F)c3)cn12` [Compound 66, (1r,4r)-N^1-(4-(6-((5-Fluoropyridin-3-yl)amino)imidazo [1,2-a]pyridin-3-yl)-5-methylpyrimidin-2-yl)cyclohexane-1,4-diamine], the inhibition constant Ki was 0.76 µM at CDK4/D1; 0.33 µM on CDK6/D3; 0.18 µM at CDKs and other kinases [1]; 3.25 µM on CDKs and other kinases [2] (setting [5]); 1.26 µM on CDKs and other kinases [3]; 0.007 µM on CDK9/T1 (setting [4]).
